From patent US8106090B2, “1-amino linked compounds” (Eli Lilly and Company, priority 2005, dated 2012) come the findings set out here.

The structures appear in SMILES notation. Structures can show the parent of a compound that is named as a salt.

By IC50 is commonly meant the concentration that gives 50% inhibition.

T1 sequence (P27487 29-766 limits assumed): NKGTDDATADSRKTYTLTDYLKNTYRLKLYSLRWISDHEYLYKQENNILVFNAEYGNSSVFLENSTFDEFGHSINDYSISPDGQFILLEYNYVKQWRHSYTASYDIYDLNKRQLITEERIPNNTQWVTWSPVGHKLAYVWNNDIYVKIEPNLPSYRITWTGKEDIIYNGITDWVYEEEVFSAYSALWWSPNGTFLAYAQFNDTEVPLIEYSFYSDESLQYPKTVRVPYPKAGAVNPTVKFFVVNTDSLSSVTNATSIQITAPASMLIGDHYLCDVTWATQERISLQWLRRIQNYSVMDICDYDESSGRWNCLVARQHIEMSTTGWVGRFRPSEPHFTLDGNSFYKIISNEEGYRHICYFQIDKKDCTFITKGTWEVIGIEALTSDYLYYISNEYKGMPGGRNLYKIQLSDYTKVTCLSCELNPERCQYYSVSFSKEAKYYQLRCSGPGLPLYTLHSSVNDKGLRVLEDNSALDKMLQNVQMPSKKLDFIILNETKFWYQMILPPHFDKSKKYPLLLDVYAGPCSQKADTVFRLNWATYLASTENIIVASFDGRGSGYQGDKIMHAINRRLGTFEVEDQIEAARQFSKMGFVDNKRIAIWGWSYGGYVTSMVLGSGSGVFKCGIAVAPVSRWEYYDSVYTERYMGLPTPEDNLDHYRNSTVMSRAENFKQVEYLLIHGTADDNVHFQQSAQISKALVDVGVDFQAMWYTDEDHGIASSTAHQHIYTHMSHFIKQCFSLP

The experiment addresses T1, human recombinant DPIV enzyme (Homo sapiens, UniProt P27487).
T1 construct: Secreted DPIV (lacking membrane anchor) was enriched from HEK293 cell culture supernatant; made in house; host or cells: HEK293
Put plainly: Human recombinant DPIV activity assay (fluorometric end point, Gly-Pro-AMC substrate). Format: biochemical. The note with it: enriched human recombinant DPIV, Gly-Pro-AMC 0.02 mM, 12 points concentration response curve, duplicates. As for the experimental part: Human Recombinant DPIV Activity Assay
The DPIV assay used was a fluorometric end point assay (excitation 355 nm; emission 460 nm) using enriched human recombinant DPIV enzyme (21.3 μU/μl), and Gly-Pro-AMC (Bachem I-1225) as substrate (0.02 mM). Secreted DPIV (lacking membrane anchor) was enriched from HEK293 cell culture supernatant by ultrafiltration, ultra-centrifugation, and size-exclusion chromatography. IC50 values of the compounds were calculated based on a 12 points concentration response curve. Each concentration was measured as duplicates. The assay was validated by plate variability and conformity, inter-plate variability, signal window, and minimum significant ration of IC50. A MSR was calculated based on a test/retest analysis and a retrospective analysis. The MSR value is 1.8.
Regarding `CN(C[C@H](O)[C@H](N)Cc1ccccc1)S(C)(=O)=O` [Example 21, N-[(2S,3R)-3-Amino-2-hydroxy-4-phenyl-butyl]-N-methyl-methanesulfonamide Hydrochloride], the IC50 was 9.76 µM.

As to `N[C@H](Cc1ccccc1)[C@@H](O)Cn1cnc2ccccc21` [Example 15, (2S,3R)-3-Amino-1-benzimidazol-1-yl-4-phenyl-butan-2-ol Hydrochloride], the IC50 was 4.33 µM.

For `N[C@H](Cc1ccccc1)[C@@H](O)Cn1cccn1` [Example 13, (2S,3R)-3-Amino-4-phenyl-1-pyrazol-1-yl-butan-2-ol Hydrochloride], the IC50 is 2.99 µM.

As for `N[C@H](Cc1ccccc1)[C@@H](O)CN1CCCC(c2ccccc2)C1` (stereo partly drawn) [Example 6, (2S,3R)-3-Amino-4-phenyl-1-([3R,S]-3-phenyl-piperidin-1-yl)-butan-2-ol Dihydrochloride], the IC50 turned out to be 2.73 µM.
